Assay results published in US20210330578A1, “TOPICAL COSMETIC COMPOSITIONS” (Mary Kay Inc., priority 2020, published 2021).

System: filaggrin
Assay: Filaggrin protein expression in keratinocytes (PROTEINSIMPLE SIMON western blotting bioassay)
Assay type: cell-based, human
Conditions: 1% tested, 24 to 36 hours
Experimental: Changes in the production of filaggrin in keratinocytes due to each of the active ingredients, any one of the combination of ingredients, or compositions having said combinations disclosed in the specification can be measured. Filaggrin is the precursor to Natural Moisturizing Factor (NMF) in the skin. Increased NMF increases the moisture content of the skin.
Filaggrin production in treated and non-treated keratinocytes was determined using the PROTEINSIMPLE® SIMON™ western blotting bioassay that employs an antibody specific for filaggrin to quantitatively detect filaggrin concentration in keratinocyte cell lysates. The treated group of keratinocytes was treated with 1% of calcium or an extract of Laminaria saccharina, marine plankton, Opuntia ficus-indica, Imperata cylindrical, or Verbena officinalis (1%).
For each sample, normal human epidermal keratinocytes (NHEK) were grown in EPI-200—Mattek EPILIFE™ growth media with calcium from Life Technologies (M-EP-500-CA). […] The protein concentrations of the samples were determined and used to normalize the samples. The lysates were stored at −80° C. until used in the quantification assay. […] The chemiluminescent development was stopped at a specific time and the intensity of the chemiluminescent signal was measured (reported as Area Under Curve, AUC in Table 3 below) and compared to controls.

Compound: [Ca+2] [Calcium]
- % Ctrl (increase in filaggrin protein expression) (NHEK, compared to controls): 15.60%
- AUC (intensity of the chemiluminescent signal, filaggrin) (normal human epidermal keratinocytes (NHEK), control AUC 70848): 81899
